Test results reported in US6451340B1, “Nucleotide analog compositions” (Gilead Sciences, Inc., priority 1997, dated 2002).
Like-named read-outs stand apart in the source and are kept apart here.

How the values were obtained:
[1] = L-carnitine levels in patients taking AD; assay type: in vivo
Source text: Formulations containing crystalline AD and an excipient(s) may also contain L-carnitine or salts of L-carnitine, e.g., L-carnitine-L-tartrate (2:1). […] Tablets containing L-carnitine-L-tartrate and AD may decrease the effect of pivalic acid on L-carnitine depletion in patients taking AD. The amount of L-carnitine to be included will be apparent to the clinician in view of the extent of depletion in patients.

[2] = AD solubility in crystallization solvents; assay type: physicochemical; details: for solubility: organic solvent or mixture
Method: Crystalline AD is prepared by allowing crystal formation in an AD composition, usually from a solution of AD in a crystallization mixture containing at least about 6%, typically at least about 30%, usually at least about 35%, of AD. One would ordinarily conduct crystallizations by preparing an AD solution comprising about 6-45% AD and about 55-94% crystallization solvent. […] AD is not freely soluble in some crystallization solvents, e.g., AD solubility in di-n-butyl ether is less than about 0.3 mg/mL, and adding these solvents to an AD solution increases the degree of saturation or supersaturation of the solution. One usually uses organic solutions containing an amount of AD that is near the upper solubility limit in the crystallization solvent(s). The lower amount, about 6%, is the minimum amount of AD needed in a solution to consistently yield crystals. Certain solvents, e.g., methanol or CH2Cl2, can contain more than about 50% AD.
One usually prepares Form 3 crystals by allowing crystals to grow in an anhydrous methanol solution of AD. One obtains AD in methanol by mixing sufficient noncrystalline or crystalline AD in methanol for about 10-15 minutes at room temperature or as needed to dissolve the solid AD to obtain a solution having at least about 100-150 mg AD/mL methanol. AD solubility in methanol at room temperature is greater than 600 mg/mL. Crystallization then proceeds for about 4 to about 48 hours at a temperature of about −5° to about 25°, usually at about 0-23°.
Recrystallization generally begins shortly after completion of adding and mixing the di-n-butyl ether and one then allows recrystallization to proceed for about 4-36 hours, usually about 6-24 hours. Additional yield of crystals from recrystallization at room temperature for about 4-36 hours is usually obtained by cooling the recrystallization mixture to about 4-10° and allowing the mixture to stand about 1-6 hours at the reduced temperature. Usually, the amount of AD one uses in a recrystallization will be sufficient to form a saturated or nearly saturated solution, i.e., about 0.4 g/mL using acetone. Dissolution of AD in acetone is complete in about 2-8 minutes using moderate agitation. Material remaining undissolved after this initial mixing period is removed and discarded, followed by adding the second less polar solvent of the solvent pair to the mixture containing the first crystallization solvent.
One conducts a Form 3 recrystallization in methanol in the same manner as described herein for preparation of Form 3 crystals. A saturated or nearly saturated methanol solution is used to prepare the crystals, i.e., at least about 0.6 g/mL AD.

saturated or nearly saturated solution of AD ([2]; acetone): about 0.4 g/mL
solubility ([2]; di-n-butyl ether, read-out: AD solubility in di-n-butyl ether): < 0.3 mg/mL
saturated or nearly saturated solution of AD ([2]; methanol): at least 0.6 g/mL
amount of AD the solvent can contain ([2]; methanol or CH2Cl2, % w/w): more than 50%
upper limit of solubility of AD ([2]; most crystallization solvents, room temperature, % w/w): 10-41%
solubility ([2]; methanol, room temperature, read-out: AD solubility in methanol): > 600 mg/mL
Structure (SMILES): CC(C)(C)C(=O)OCOP(=O)(COCCn1cnc2c(N)ncnc21)OCOC(=O)C(C)(C)C [AD, 9-[2-[[bis[(pivaloyloxy)methoxy]phosphinyl]methoxy]ethyl]adenine]
effect on L-carnitine levels (release of pivalic acid in vivo) [1]: appears to lower the levels of L-carnitine
